Where a name gives a salt, the structure may show the parent alone.
Biological target: T1, hNPRA (Homo sapiens, UniProt P16066)
T1 construct: expressed in transfected cells
T1 sequence (P16066 33-1061): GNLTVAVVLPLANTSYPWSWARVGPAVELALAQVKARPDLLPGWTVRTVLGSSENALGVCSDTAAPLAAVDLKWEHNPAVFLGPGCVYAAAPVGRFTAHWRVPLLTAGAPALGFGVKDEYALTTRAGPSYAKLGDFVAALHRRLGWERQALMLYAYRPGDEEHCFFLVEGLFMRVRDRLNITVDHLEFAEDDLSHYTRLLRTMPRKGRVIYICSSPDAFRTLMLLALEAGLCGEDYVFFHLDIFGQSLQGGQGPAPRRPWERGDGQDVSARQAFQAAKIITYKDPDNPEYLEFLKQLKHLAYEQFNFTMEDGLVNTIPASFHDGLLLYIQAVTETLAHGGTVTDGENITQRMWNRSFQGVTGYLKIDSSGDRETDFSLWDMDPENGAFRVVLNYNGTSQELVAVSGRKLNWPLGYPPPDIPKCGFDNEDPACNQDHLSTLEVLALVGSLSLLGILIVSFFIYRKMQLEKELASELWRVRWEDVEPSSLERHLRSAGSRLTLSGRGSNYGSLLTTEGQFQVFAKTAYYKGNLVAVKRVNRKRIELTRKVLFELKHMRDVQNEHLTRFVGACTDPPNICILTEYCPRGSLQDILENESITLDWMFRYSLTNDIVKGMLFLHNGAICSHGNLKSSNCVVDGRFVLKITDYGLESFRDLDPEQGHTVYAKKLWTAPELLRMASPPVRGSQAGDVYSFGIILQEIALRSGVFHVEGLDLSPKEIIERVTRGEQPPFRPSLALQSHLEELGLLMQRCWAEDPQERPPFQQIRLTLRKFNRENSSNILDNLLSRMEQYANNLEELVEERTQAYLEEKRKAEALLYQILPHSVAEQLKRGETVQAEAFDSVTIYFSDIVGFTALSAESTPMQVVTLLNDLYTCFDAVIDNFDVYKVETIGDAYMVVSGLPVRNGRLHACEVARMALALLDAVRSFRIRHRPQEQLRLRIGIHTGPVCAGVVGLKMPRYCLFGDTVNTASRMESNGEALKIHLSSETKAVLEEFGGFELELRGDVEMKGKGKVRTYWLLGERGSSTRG
Test: NPRA Functional Cell Assay (cGMP HTRF, NPRA HEK JumpIn stable cells)
Type: cell-based
Conditions: cGMP production, 1 hour at 37° C., 10-point dose response
Method in brief: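 cGMP HTRF read-out after 1 hour compound treatment at 37° C. of human NPRA-expressing HEK JumpIn cells, 1500 cells/well, in buffer with phosphodiesterase inhibitors IBMX and RO20 (100 uM each). Signal converted to [cGMP] by calibration curve; EC50s fitted by 4-parameter logistic; 50 nM h-ANP as positive response.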

| EC50 [nM] | Compound |
| --- | --- |
| 679 | O=C(O)C(F)(F)F.[2H]C([2H])([2H])N(CC[C@@H](NC(=O)c1nc2cc3c(nc2s1)CC[C@H](C(C)(C)C)C3)c1ccc(NS(=O)(=O)N(C)C)nc1)C([2H])([2H])[2H] (racemic) [Example 207, [rac-(3R)-3-[6-(dimethylsulfamoylamino)-3-pyridyl]-3-[[rac-(7S)-7-tert-butyl-5,6,7,8-tetrahydrothiazolo[5,4-b]quinoline-2-carbonyl]amino]propyl]-bis(trideuteriomethyl)ammonium; 2,2,2-trifluoroacetate] |
| 242 | CC1([C@H]2CCc3nc4sc(C(=O)N[C@H](CCN5CCC(O)CC5)c5ccc(N6CC(=O)NC6=O)nc5)nc4cc3C2)CC1 [Example 218, (S)-N-((R)-1-(6-(2,4-dioxoimidazolidin-1-yl)pyridin-3-yl)-3-(4-hydroxypiperidin-1-yl)propyl)-7-(1-methylcyclopropyl)-5,6,7,8-tetrahydrothiazolo[5,4-b]quinoline-2-carboxamide] |
| 1660 | CC(C)(C)[C@H]1CCc2nc3sc(C(=O)N[C@H](CCN4CCC(O)CC4)c4ccc(-c5cnsn5)cc4)nc3cc2C1 (racemic) [Example 183, rac-(7S)-7-tert-butyl-N-[rac-(1R)-3-(4-hydroxy-1-piperidyl)-1-[4-(1,2,5-thiadiazol-3-yl)phenyl]propyl]-5,6,7,8-tetrahydrothiazolo[5,4-b]quinoline-2-carboxamide] |
| 113 | CC1([C@H]2CCc3nc4sc(C(=O)N[C@H](CCN5CCC(O)CC5)c5ccc(-c6ccnnc6)nc5)nc4cc3C2)CC1 [Example 264, (S)-N-((R)-3-(4-hydroxypiperidin-1-yl)-1-(6-(pyridazin-4-yl)pyridin-3-yl)propyl)-7-(1-methylcyclopropyl)-5,6,7,8-tetrahydrothiazolo[5,4-b]quinoline-2-carboxamide] |
| 1150 | Cn1nnnc1-c1ccc([C@@H](CCN2CCC(O)CC2)NC(=O)c2nc3cc4c(nc3s2)CC[C@H](C(C)(C)C)C4)cc1 (racemic) [Example 177, rac-(7S)-7-tert-butyl-N-[rac-(1R)-3-(4-hydroxypiperidin-1-ium-1-yl)-1-[4-(1-methyltetrazol-5-yl)phenyl]propyl]-5,6,7,8-tetrahydrothiazolo[5,4-b]quinoline-2-carboxamide; 2,2,2-trifluoroacetate] |
| 718 | CC(C)(C)[C@H]1CCc2nc3sc(C(=O)N[C@H](CCN4CCCCC4)c4cccc(NS(C)(=O)=O)c4)cc3cc2C1 (racemic) [Example 11, ammonium; methylsulfonyl-[3-[rac-(1R)-3-(1-piperidyl)-1-[rac-(6S)-6-tert-butyl-5,6,7,8-tetrahydrothieno[2,3-b]quinoline-2-carbonyl]amino]propyl]phenyl] azanide] |
| 348 | CN(C)CC[C@@H](NC(=O)c1nc2cc3c(nc2s1)CC[C@H](C(C)(C)C)C3)c1cccc(C(=O)NCCN)c1 (racemic) [Example 92, rac-(7S)-7-tert-butyl-N-[rac-(1R)-1-[3-(2-aminoethylcarbamoyl)phenyl]-3-(dimethyl-amino)propyl]-5,6,7,8-tetrahydrothiazolo[5,4-b] quinoline-2-carboxamide] |
| 656 | CN1CC(NC(=O)c2cccc([C@@H](CCN3CCC(O)CC3)NC(=O)c3nc4cc5c(nc4s3)CC[C@H](C(C)(C)C)C5)c2)CC1=O (mixture of isomers) [Example 149, rac-(7S)-7-tert-butyl-N-[rac-(1R)-3-(4-hydroxy-1-piperidyl)-1-[3-[(1-methyl-5-oxo-pyrrolidin-3-yl)carbamoyl]phenyl]propyl]-5,6,7,8-tetrahydrothiazolo[5,4-b]quinoline-2-carboxamide] |
| 1870 | CC(C)(C)[C@H]1CCc2nc3sc(C(=O)NC(CCN4CCCCC4)c4ccccc4)cc3cc2C1 (stereo partly drawn) [Example 242, (6S)-6-tert-butyl-N-(1-phenyl-3-piperidin-1-ylpropyl)-5,6,7,8-tetrahydrothieno[2,3-b]quinoline-2-carboxamide] |
| 1790 | CC(C)(C)[C@H]1CCc2nc3sc(C(=O)N[C@H](CCN4CC(c5ccccn5)C4)c4cccc(NS(C)(=O)=O)c4)cc3cc2C1 (racemic) [Example 22, ammonium; methylsulfonyl-[3-[rac-(1R)-3-[3-(2-pyridyl)azetidin-1-y1]-1-[[rac-(6S)-6-tert-butyl-5,6,7,8-tetrahydrothieno[2,3-b]quinoline-2-carbonyl]amino]propyl]phenyl] azanide] |
| 2200 | O=C(N[C@H](CCN1CCC(O)CC1)c1ccc(N2CCOC2=O)cc1)c1nc2cc3c(nc2s1)CC[C@H](C1(C(F)(F)F)CC1)C3 [Example 232, (S)-N-((R)-3-(4-hydroxypiperidin-1-yl)-1-(4-(2-oxooxazolidin-3-yl)phenyl)propyl)-7-(1-(trifluoromethyl)cyclopropyl)-5,6,7,8-tetrahydrothiazolo[5,4-b]quinoline-2-carboxamide] |
| 132 | CC(C)(C)[C@H]1CCc2nc3sc(C(=O)N[C@H](CCN4CCC(O)CC4)c4cccc(C(=O)N[C@@H]5CNC[C@H]5O)c4)nc3cc2C1 (racemic) [Example 135, rac-(7S)-7-tert-butyl-N-[rac-(1R)-3-(4-hydroxy-1-piperidyl)-1-[3-[[rac-(3R,4R)-4-hydroxypyrrolidin-3-yl]carbamoyl]phenyl]propyl]-5,6,7,8-tetrahydrothiazolo[5,4-b]quinoline-2-carboxamide] |
| 530 | CC(C)(C)[C@H]1CCc2nc3sc(C(=O)N[C@H](CCN(CCO)CCO)c4ccc(-c5ccc(=O)[nH]c5)cc4)cc3cc2C1 (racemic) [Example 34, rac-(6S)-6-tert-butyl-N-[rac-(1R)-3-[bis(2-hydroxyethyl)amino]-1-[4-(6-oxo-1H-pyridin-3-yl)phenyl]propyl]-5,6,7,8-tetrahydrothieno[2,3-b]quinoline-2-carboxamide] |
| 1980 | CN(C)S(=O)(=O)Nc1cccc([C@@H](CCN2CCC(O)CC2)NC(=O)c2nc3cc4c(nc3s2)CC[C@H](C(C)(C)C)C4)c1 (mixture of isomers) [Example 216, (7S)-7-tert-butyl-N-[rac-(1R)-1-[3-(dimethylsulfamoylamino)phenyl]-3-(4-hydroxypiperidin-1-ium-1-yl)propyl]-5,6,7,8-tetrahydrothiazolo[5,4-b]quinoline-2-carboxamide; formate] |
| 1850 | COC(=O)C1CCN(CC[C@@H](NC(=O)c2nc3cc4c(nc3s2)CC[C@@](F)(C(C)C)C4)c2ccc(-c3ccnnc3)nc2)CC1 [Example 269, methyl 1-((R)-3-((S)-7-fluoro-7-isopropyl-5,6,7,8-tetrahydrothiazolo[5,4-b]quinoline-2-carboxamido)-3-(6-(pyridazin-4-yl)pyridin-3-yl)propyl)piperidine-4-carboxylate] |
| 292 | CC(C)(C)[C@H]1CCc2nc3sc(C(=O)N[C@H](CCN)c4cccc(C(=O)N[C@H]5CCNC5)c4)cc3cc2C1 [Example 225] |
| 566 | CN(C)CC[C@@H](NC(=O)c1nc2cc3c(nc2s1)CC[C@H](C(C)(C)C)C3)c1cccc(C(=O)N2CC(N)C2)c1 (racemic) [Example 94, rac-(7S)-7-tert-butyl-N-[rac-(1R)-1-[3-(3-aminoazetidine-1-carbonyl)phenyl]-3-(dimethylamino)propyl]-5,6,7,8-tetrahydrothiazolo [5,4-b]quinoline-2-carboxamide] |
| 1250 | CC(C)(C)[C@H]1CCc2nc3sc(C(=O)N[C@H](CCN4CCC(O)CC4)c4ccc(-c5nc[nH]c5C#N)cc4)nc3cc2C1 (racemic) [Example 178, rac-(7S)-7-tert-butyl-N-[rac-(1R)-1-[4-(5-cyano-1H-imidazol-4-yl)phenyl]-3-(4-hydroxy-1-piperidyl)propyl]-5,6,7,8-tetrahydrothiazolo[5,4-b]quinoline-2-carboxamide] |
| 357 | CC(C)(C)[C@H]1CCc2nc3sc(C(=O)N[C@H](CCN4CCC(O)CC4)c4ccc(-c5cc[n+]([O-])nc5)cc4)nc3cc2C1 (racemic) [Example 163, rac-(7S)-7-tert-butyl-N-[rac-(1R)-3-(4-hydroxypiperidin-1-ium-1-yl)-1-[4-(1-oxidopyridazin-1-ium-4-yl)phenyl]propyl]-5,6,7,8-tetrahydrothiazolo[5,4-b]quinoline-2-carboxamide; 2,2,2-trifluoroacetate] |
